Results on four compounds are retold here after patent US4081441A, “Antibacterial agents” (priority 1977, dated 1978).

Molecules are shown by their SMILES. Counter-ions that a name gives are not always drawn. Like-named read-outs stand apart in the source and are kept apart here.

The test system of assay [1] is Pseudomonas aeruginosa A9843A. It is filed as in vivo, mice. Conditions: intramuscular, mice; as effective as combination 1.25 mg./kg. BL-P1908 + 2 mg./kg. amikacin.
For assay [2], the system named is Pseudomonas aeruginosa. Kind of assay: In vitro bactericidal synergism, broth dilution checkerboard. It is filed as cell-based. Conditions: for MBC: Pseudomonas aeruginosa, drug alone. For orientation: In broth dilution the organism is exposed to a series of concentrations in liquid medium.
The test system of assay [3] is Pseudomonas aeruginosa. To be noted: prior art; cited from earlier work.

Consider `NCC[C@H](O)C(=O)N[C@@H]1C[C@H](N)[C@@H](O[C@H]2O[C@H](CN)[C@@H](O)[C@H](O)[C@H]2O)[C@H](O)[C@H]1O[C@H]1O[C@H](CO)[C@@H](O)[C@H](N)[C@H]1O` [Amikacin, 1-[L-(-)-γ-amino-α-hydroxybutryl]kanamycin A], for which the “equally effective dosage, drug alone” value in assay [1] amounted to 8 mg/kg. In addition, the MBC in the assay on Pseudomonas aeruginosa [2] (strain A20552, read-out: Minimum Bactericidal Concentration) was 8 µg/mL; in the assay with Pseudomonas aeruginosa [2] (strain A21509, read-out: Minimum Bactericidal Concentration), 125 µg/mL; with Pseudomonas aeruginosa [2] (strain A21510, read-out: Minimum Bactericidal Concentration) it was 64 µg/mL. Further, the strain sensitivity result with Pseudomonas aeruginosa [2] (strain A9843A) is on record as “sensitive”; in the assay with Pseudomonas aeruginosa [2] (strain A20480), “sensitive”; with Pseudomonas aeruginosa [2] (strain A20552), “sensitive”; in the assay on Pseudomonas aeruginosa [2] (strain A20620) it was “resistant”; with Pseudomonas aeruginosa [2] (strain A21509), “resistant”; in the assay with Pseudomonas aeruginosa [2] (strain A21510), “resistant”.

In the case of `NCC[C@H](O)C(=O)N[C@@H]1C[C@H](N)[C@@H](O[C@H]2O[C@H](CN)[C@@H](O)[C@H](O)[C@H]2O)[C@H](O)[C@H]1O[C@H]1O[C@H](CO)[C@@H](O)[C@H](N)[C@H]1O` [amikacin sulfate], in the assay on Pseudomonas aeruginosa [2] (read-out: Minimum Bactericidal Concentration, strain A9843A), the MBC is 4 µg/mL.

Take `CC1(C)S[C@@H]2[C@H](NC(=O)[C@H](C(=O)O)c3ccsc3)C(=O)N2[C@H]1C(=O)O` [ticarcillin]: the “potency against Pseudomonas aeruginosa” value in the assay with Pseudomonas aeruginosa [3] is “relatively low potency”.

Regarding `CC1(C)S[C@@H]2[C@H](NC(=O)C(c3ccccc3)S(=O)(=O)O)C(=O)N2[C@H]1C(=O)O` (stereo partly shown) [sulbenicillin], the “potency against Pseudomonas aeruginosa” value with Pseudomonas aeruginosa [3] was “relatively low potency”.
